According to patent US4968679A, “8-substituted 2-aminotetralins” (Bayer Aktiengesellschaft, priority 1986, dated 1990):

molecular target: 5-hydroxytryptamine receptors of the sub-type 1 (5-HT1 receptor); test: Affinity to the 5-HT1 receptor: receptor binding studies using calf hippocampus membrane preparations, 3H-serotonin as radioactively labelled ligand; settings: calf hippocampus membranes; 3H-serotonin radioligand
Experimental: In Table 1, as an example, the high affinity of the compounds according to the invention to 5-hydroxytryptamine receptors of the sub-type 1 is shown. The values specified are data which were determined from receptor binding studies using calf hippocampus membrane preparations. 3 H-serotonin was used for this purpose as radioactively labelled ligand.

Row | SMILES | Ki [nM]
1 | CCCN(CCC)C1CCc2cccc(Cl)c2C1 (stereo not shown) [Example 1, 2-Dipropylamino8-chloro-1,2,3,4-tetrahydronaphthalene] | 20
2 | CCCN(CCC)C1CCc2cccc(OCCNC=O)c2C1 (stereo not shown) [Example 33, 2-Dipropylamino-8-(2-formylamido-ethoxy)-1,2,3,4-tetrahydronaphthalene] | 19
3 | CCCCS(=O)(=O)NCCOc1cccc2c1CC(N(CCC)CCC)CC2 (stereo not shown) [Example 26, 2-Dipropylamino-8-(2-butanesulphonamidoethoxy)-1,2,3,4-tetrahydronaphthalene] | 17
4 | CCCN(CCC)C1CCc2cccc(OCCNC(=O)OCC)c2C1 (stereo not shown) [Example 28, 2-Dipropylamino-8-(2-ethoxycarbonylamido-ethoxy)1,2,3,4-tetrahydronaphthalene] | 4
5 | CCCN(CCC)C1CCc2cccc(Br)c2C1 (stereo not shown) [Example 2, 2-Dipropylamino-8-bromo-1,2,3,4-tetrahydronaphthalene] | 13
6 | CCCN(CCC)C1CCc2cccc(O)c2C1 (stereo not shown) [R^1 =OH, R^2 =R^3 =nC3 H7, reference compound] | 2
7 | CCCN(CCC)C1CCc2cccc(CCNC(=O)OCc3ccccc3)c2C1 (stereo not shown) [Example 42, 2-Dipropylamino-8-(2-benzyloxycarbonylamido-ethyl)-2,3,4-tetrahydronaphthalene] | 5
8 | CCCN(CCC)C1CCc2cccc(C(N)=O)c2C1 (stereo not shown) [Example 6, 2-Dipropylamino-8-carbamoyl-1,2,3,4-tetrahydronaphthalene] | 7
9 | CCCN(CCC)C1CCc2cccc(OC)c2C1 (stereo not shown) [R^1 =OCH3, R^2 =R^3 =nC3 H7, reference compound] | 3
10 | CCCN(CCC)C1CCc2cccc(OCCNC(N)=O)c2C1 (stereo not shown) [Example 30, 2-Dipropylamino-8-ureidoethoxy-1,2,3,4-tetrahydronaphthalene] | 30
